From patent publication US10744175B2, “Herbal composition for the treatment of Herpes” (priority 2016, dated 2020)

Test system: Herpes simplex virus
Assay: Administration to human subjects with Herpes symptoms (case reports)
Format: in vivo
Conditions: case 3: taken for years by man and woman positive for HSV 1 and 2
Experimental: • 1. Frequent Genital herpes outbreaks—A person from Karnataka, India, suffers from severe blistering, pain and burning around the pubic region and genitals due to one or more strains of the Herpes virus. The composition of the invention as disclosed in Example 1 is administered. […] Tiny pimple-like outbreaks around lips—A person—starts experiencing tiny pimples on their lips which later appear like blisters. Blood tests show high titer from HSV 1 antibodies. […] Each tests positive for HSV 1 and 2. […] A person reports the presence of abnormal cells along with the presence of HPV. These cells then develop into “pre-cancerous” cells. This subject daily ingests the composition of Example 1 for 4 months. […] After administration of the composition of Example 1 for over 6 months, the results for HPV come back negative. • 6. A person reports warts on their hands for about 6 years which they remove with laser therapy. This burns the skin and leaves scars. […] A person reports an HPV infection for 5 years. Within the first 6 months of daily ingestion of the composition of Example 1, all tests for HPV are negative and no recurrence is shown. • 8. A person ingests the composition of Example 1 along with an alkaline diet. This subject suffers from larger warts (around 10 in number). […]

Nc1nc2c(ncn2COCCO)c(=O)[nH]1 [acyclovir]
outcome of previous antiviral treatment: little success
